Each structure is given as a SMILES string.

Neuronal acetylcholine receptor; alpha4/beta2, sequence (P09483 whole entry): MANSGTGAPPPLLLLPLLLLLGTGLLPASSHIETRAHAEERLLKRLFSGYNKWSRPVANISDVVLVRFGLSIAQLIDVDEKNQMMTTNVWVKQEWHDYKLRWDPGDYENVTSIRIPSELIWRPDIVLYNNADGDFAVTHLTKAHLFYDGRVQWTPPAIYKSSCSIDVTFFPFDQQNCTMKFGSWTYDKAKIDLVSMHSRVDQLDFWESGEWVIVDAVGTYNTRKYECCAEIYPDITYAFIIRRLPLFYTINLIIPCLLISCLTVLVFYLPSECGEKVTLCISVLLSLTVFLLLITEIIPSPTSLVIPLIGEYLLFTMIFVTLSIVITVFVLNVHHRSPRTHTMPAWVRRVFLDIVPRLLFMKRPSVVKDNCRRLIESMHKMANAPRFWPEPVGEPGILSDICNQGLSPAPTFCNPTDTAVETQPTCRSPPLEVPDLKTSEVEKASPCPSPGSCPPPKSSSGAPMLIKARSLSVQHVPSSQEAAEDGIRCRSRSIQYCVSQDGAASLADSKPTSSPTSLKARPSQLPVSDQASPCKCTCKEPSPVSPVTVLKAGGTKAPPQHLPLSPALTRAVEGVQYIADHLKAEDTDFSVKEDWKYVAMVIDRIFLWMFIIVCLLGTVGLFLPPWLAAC
Neuronal acetylcholine receptor; alpha4/beta2, sequence (P12390 whole entry): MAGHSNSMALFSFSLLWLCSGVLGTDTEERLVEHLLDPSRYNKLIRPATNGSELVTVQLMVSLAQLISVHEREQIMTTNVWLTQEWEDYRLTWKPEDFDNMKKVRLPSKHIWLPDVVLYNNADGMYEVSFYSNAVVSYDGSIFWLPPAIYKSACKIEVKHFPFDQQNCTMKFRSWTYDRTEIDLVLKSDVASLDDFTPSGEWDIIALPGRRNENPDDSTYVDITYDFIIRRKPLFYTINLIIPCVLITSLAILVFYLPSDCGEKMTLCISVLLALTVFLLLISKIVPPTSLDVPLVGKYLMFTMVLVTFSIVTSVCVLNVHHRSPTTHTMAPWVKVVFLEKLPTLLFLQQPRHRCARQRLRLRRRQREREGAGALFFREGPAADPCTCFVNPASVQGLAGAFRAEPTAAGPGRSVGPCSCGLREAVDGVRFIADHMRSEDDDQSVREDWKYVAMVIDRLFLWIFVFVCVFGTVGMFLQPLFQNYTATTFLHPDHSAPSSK

The assay addresses Neuronal acetylcholine receptor; alpha4/beta2 (Rattus norvegicus, UniProt P09483+P12390). In words: Binding affinity for rat brain Nicotinic acetylcholine receptor alpha4-beta2 using [3H]S-(-)-nicotine.
Regarding `CCN(C)CCc1ccc(CCc2ccc(OC)cc2)nc1`, the Ki was > 10000 nM.

The molecule `CCN(C)CCc1cncc(OC)c1` came in with a Ki of 19 nM.

Consider `CCN(C)CCc1cnccc1N`, for which the inhibitory constant (Ki) is > 10000 nM.

Molecule `CCN(C)CCc1cncc(Br)c1` showed an inhibition constant (Ki) of 360 nM.

In turn, `CCN(C)CCc1ccc(Br)nc1` registered an inhibitory constant (Ki) of 83 nM.

Regarding `CCN(C)CCc1cncc(Cl)c1`, the affinity, expressed as Ki, was 310 nM.

`CCN(C)CCc1ccc(C)nc1`: affinity was put at a Ki of 240 nM.

`CCN(C)CCc1ccc(Cl)nc1` yielded a Ki of 70 nM.

On to `CCN(C)CCc1cnccc1OC`, for which the Ki amounted to 1840 nM.

Turning to `CCN(C)CCc1ccc(CCc2ccc(Cl)cc2)nc1`, the Ki was > 10000 nM.

The molecule `CCN(C)CCc1cncc(C)c1` showed a Ki of 370 nM.

One may read the Ki as the equilibrium dissociation constant of an inhibitor or competing ligand from its target. Low values mean higher affinity, high ones lower affinity.
